US11434534B2, “Optimizing therapeutic options in personalized medicine” (CureMatch, Inc., priority 2016, dated 2022)

Legend:
[1] = system: metastatic basal cell cancer; conditions: for response to earlier therapy: brain, bone and liver metastases, therapies before nivolumab
From the text: The interaction of this ligand (PD-L1) with the programmed death receptor (PD-1), expressed on T and B cells, alters the function of these cells leading to inhibition of autoimmunity and anti-tumor immunity.
The patient was started on nivolumab (OPDIVO®, anti-PD-1 antibody).

[2] = system: hepatocellular carcinoma (HCC) with CDKN2A and CTNNB1 mutations; assay: Clinical outcome of hepatocellular carcinoma patient (Example 1); format: in vivo, human; conditions: metastatic HCC after chemoembolization, before molecular profiling
From the text: Six months later, the physician logs in to the system via the web-interface and completes the physician's feedback survey regarding the regimen prescribed to their patient and the outcome observed. […] The entry corresponding to this observation was created in the clinical outcome database and will then be used in order to optimize similar cases.

[3] = Tolerability in type 2 diabetes patient (Example 6); format: in vivo, human
From the text: A person over-weight man (Body Mass Index=37.5, clinical obesity class 2) with a 5-year history of type 2 diabetes consults a Diabetes Specialty Clinic in Paris (France) for recent weight gain, foot pain, and persistent nocturia. At the time of their initial appointment, the patient was taking simvastatin (ZOCOR®) for a hyperlipidemia and a “pancreatic elixir” in an attempt to improve their diabetes control. […] The laboratory tests performed the same day confirms the uncontrolled type 2 diabetes (evaluated by a level of glycosylated hemoglobin=8.3%-normal<7%), a normo-lipidemia, and an elevated urine micro-albumin level. The physician ordered a urine metabolite profiling. The post-analysis review of the results highlighted the upregulation of the IL-1 (interleukin 1), TNF (Tumor Necrosis Factor), and mTOR (Mammalian Target of Rapamycin) signaling pathways.
The association of IL-1 and TNF inhibitors together is not considered by the system, as it increases the risk of serious infections. […] All of these drugs are approved by the ANSM (French Agency for Medicines and Medical Products Security).

## nivolumab: anti-PD-1 antibody
[1]; after two months, PD-L1 (CD274) amplification
  response on scans: remarkable partial remission
[1]; human, in vivo
  toxicity: no toxicity

## Cc1c(C(=O)Nc2ccc(N3C[C@@H](C)O[C@@H](C)C3)nc2)cccc1-c1ccc(OC(F)(F)F)cc1 [sonidegib]
[1]
  response to earlier therapy: non-responsive

## CNC(=O)c1cc(Oc2ccc(NC(=O)Nc3ccc(Cl)c(C(F)(F)F)c3)cc2)ccn1 [sorafenib]
[2]
  disease course under treatment: continued to progress

## CCC(C)(C)C(=O)O[C@H]1C[C@@H](C)C=C2C=C[C@H](C)[C@H](CC[C@@H]3C[C@@H](O)CC(=O)O3)[C@H]21 [simvastatin]
[3]; taken for hyperlipidemia
  tolerability: well-tolerated

## N.N.[Cl][Pt][Cl] [cisplatin]
[1]
  response to earlier therapy: short-lived response

## CS(=O)(=O)c1ccc(C(=O)Nc2ccc(Cl)c(-c3ccccn3)c2)c(Cl)c1 [vismodegib]
[1]
  response to earlier therapy: non-responsive

## COc1ccc(Cl)cc1C(=O)NCCc1ccc(S(=O)(=O)NC(=O)NC2CCCCC2)cc1 [glibenclamide]
[3]; human, in vivo
  adverse effects that led to stopping the drug: dizziness, sweating, and agitation

## CC(=O)O[C@H]1C(=O)[C@@]2(C)[C@H]([C@H](OC(=O)c3ccccc3)[C@]3(O)C[C@H](OC(=O)[C@H](O)[C@@H](NC(=O)c4ccccc4)c4ccccc4)C(C)=C1C3(C)C)[C@]1(OC(C)=O)CO[C@@H]1C[C@@H]2O [paclitaxel]
[1]
  response to earlier therapy: short-lived response
